The target of this assay is T1, IRAK4 (Homo sapiens, UniProt Q9NWZ3).
T1 construct: endogenous in cells; host or cells: THP-1 cells
T1 sequence (Q9NWZ3 1-460): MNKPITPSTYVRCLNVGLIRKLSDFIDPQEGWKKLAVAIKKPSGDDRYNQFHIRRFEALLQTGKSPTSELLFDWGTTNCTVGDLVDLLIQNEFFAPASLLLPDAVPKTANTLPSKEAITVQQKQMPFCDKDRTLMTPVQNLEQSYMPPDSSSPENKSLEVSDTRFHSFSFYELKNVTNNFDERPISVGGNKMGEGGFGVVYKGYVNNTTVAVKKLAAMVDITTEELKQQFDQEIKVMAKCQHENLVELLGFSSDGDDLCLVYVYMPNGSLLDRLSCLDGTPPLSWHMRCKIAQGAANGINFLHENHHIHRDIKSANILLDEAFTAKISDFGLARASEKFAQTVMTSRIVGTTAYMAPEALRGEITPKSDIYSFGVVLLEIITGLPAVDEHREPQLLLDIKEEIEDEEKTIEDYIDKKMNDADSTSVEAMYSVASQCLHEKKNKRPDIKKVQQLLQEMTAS
In words: LVL THP1 HTRF (THP1 Homogeneous Time Resolved Fluorescence). The settings on record: THP1 cells, 18 h incubation with compound; for DC50: read-out: LVL THP1 HTRF EC50. Type of assay: cell-based. How it is done:
Cell culture media was prepared in a tissue culture hood in a sterile environment by adding 10% FBS and 1% Penicillin Streptomycin to 500 mL no phenol red RPMI 1640 media. The media was filtered through a Nalgene Bottle Top Filter and stored at 4° C.
For Homogenous Time Resolved Fluorescence (HTRF) assays, a Cisbio HTRF kit was used, which included: Lysis Buffer #1 4×, Blocking Reagent #3 100×, 20× Antibody 1 (Anti-IRAK4 d2), 20× Antibody 2 (Anti-IRAK4 k), and Detection Buffer.
The THP1 plates were prepared by the following method. For each dosing plate, a duplicate for CTG assay was prepared. Two THP-1 T-175 flasks could be used to plate one 384 well plate. The cells were collected from two T-175 flasks into 200 mL centrifuge tubes and spun down at 1200 rpm for 10 min. The supernatant was removed completely and cells were resuspended in 7.5 mL cell culture media. To 5 μL of the cell suspension was added 25 μL of media and 30 μL of Trypan Blue stain. The cells were counted using countess (automated cell counter, Thermo Fisher Scientific) twice and the viability and live cell count was recorded. The actual cell count was […] the live cell count. Based on the count, a cell suspension was prepared in colorless RPMI media for a final concentration of 7.5e6 cells/mL. Using Standard cassette multidrop combi, 20 μL of the 7.5e6 cells/mL cell stock was added to entire 384 well plate but for top half of column 1 (negative control) The multidrop combi was always primed to achieve a steady flow and washed after use with 20 mL de-ionized water followed by 20 mL alcohol. The cells were incubated in 5% CO2 incubator at 37° C.
Dosing was conducted using the following method. To dose assay plates and CTG plate was added 20 nL of compounds in DMSO using Echo (Beckman Coulter), and the plates were incubated at 37° C. for 18 h. The compound plates were spun at 1200 rpm for 1 min before dosing. The compound plate was sealed and properly stored during incubation.
After dosing, an HTRF assay was conducted using the following method. The treatment plates (IRAK4_HTRF) were centrifuged at 600 g for 10 min. Using CyBio Felix, Automated liquid handler (Analytikjena), 13 μL cell culture media was removed. To all columns, 7.5 μL lysis buffer was added, and an additional 7.5 μL of lysis buffer was added to column 1(top half, negative control). The plate was incubated on a shaker at room temperature for 2 h. The plate was spun down at 600 g for 5 min. Custom 20×IRAK4 Antibody obtained from CISBIO Anti-IRAK4-d2 (acceptor Ab) and Anti-IRAK4-K (donor Ab) were diluted to 1× antibody mix Using a multichannel repeater, 4 μL of 1× antibody mix was added to each wellThe plate was spun down at 600 g for 5 min and incubated in the dark at room temperature for 18 h The next day (after 18 hrs), HTRF assay plate was spun down at 600 g for 5 min and read at 665/615 nm using a Envision plate reader.

Where a name gives a salt, the structure may show the parent alone.

As for `Cc1cc(N2CC[C@H]3[C@@H]2CCN3CC[C@H]2CC[C@H](NC(=O)c3cnc(-n4ncc5cc(C#N)cnc54)cc3N[C@H](C)C#N)CC2)ccc1N1CCC(=O)NC1=O` [P-489], the “LVL THP1 HTRF YMIN” value came out at 84.3% and the DC50 was 1000 nM. With `CC[C@H](C#N)Nc1cc(-n2ncc3cc(C#N)cnc32)ncc1-n1cc([C@H]2CC[C@H](CCN3CCN(c4ccc(C5CCC(=O)NC5=O)cc4)CC3)CC2)nn1` (stereo in doubt) [P-392], the “LVL THP1 HTRF YMIN” value amounted to 3.5% and the DC50 is 8.7 nM. On to `C[C@H](C#N)Nc1cc(Nc2ncc(C#N)cn2)ncc1-n1cc([C@H]2CC[C@H](CCN3CCN(c4ccc(N5CCC(=O)NC5=O)cc4)CC3)CC2)nn1` [P-389], for which the “LVL THP1 HTRF YMIN” value worked out at 18.9% and the DC50 stood at 180 nM. Regarding `Cc1cc(N2CC[C@H]3[C@@H]2CCN3CC[C@H]2CC[C@H](NC(=O)c3cnc(-n4ncc5cc(C#N)cnc54)cc3N[C@H](C)C#N)CC2)ccc1N1CCC(=O)NC1=O` [P-490], the “LVL THP1 HTRF YMIN” value is listed as 81.6% and the DC50 is 1000 nM. Taken in the same sequence, the figures for `COc1cnc(Nc2cc(N[C@H](C)C#N)c(-n3cc([C@H]4CC[C@H](CCN5CCN(c6ccc(C7CCC(=O)NC7=O)cc6)CC5)CC4)nn3)cn2)nc1` (some centres unmarked) [P-398] were 5.8% and 24 nM. On to `C[C@H](C#N)Nc1cc(Nc2ncc(C#N)cc2Cl)ncc1-n1cc([C@H]2CC[C@H](CCN3CCN(c4ccc([C@@]5(C)CCC(=O)NC5=O)cc4)CC3)CC2)nn1` [P-297], for which the “LVL THP1 HTRF YMIN” value is recorded as 6.5% and the DC50 was 49.3 nM. `C[C@H](C#N)Nc1cc(-n2ncc3cc(C#N)cnc32)ncc1-c1cc(C2CCC(CCN3CCN(c4ccc(C5CCC(=O)NC5=O)cc4)CC3)CC2)no1` (some centres unmarked) [P-211]: the “LVL THP1 HTRF YMIN” value is recorded as 1.1%.

On to `C[C@H](C#N)Nc1cc(-n2ncc3cc(C#N)cnc32)ncc1-n1cc([C@H]2CC[C@H](CCN3CCN(c4ccc([C@@]5(C)CCC(=O)NC5=O)nc4)[C@@H](C)C3)CC2)nn1` (single isomer, unassigned) [P-290], for which the “LVL THP1 HTRF YMIN” value is reported as 33.6% and the DC50 was 252 nM.

For `N#Cc1cnc2c(cnn2-c2cc(NC3CCOCC3)c(-n3cc([C@H]4CC[C@H](CCN5CCN(c6ccc(C7CCC(=O)NC7=O)cc6)CC5)CC4)nn3)cn2)c1` (some centres unmarked) [P-406], the “LVL THP1 HTRF YMIN” value is recorded as 1.7% and the DC50 worked out at 7.6 nM. Regarding `C[C@H](C#N)Nc1cc(-n2ncc3cc(C#N)c(N)nc32)ncc1-n1cc([C@H]2CC[C@H](CCN3CCC(c4ccc(C5CCC(=O)NC5=O)cc4)CC3)CC2)nn1` (some centres unmarked) [P-214], the DC50 was under 1 nM. As to `C[C@H](C#N)Nc1cc(-n2ncc3cc(C#N)cnc32)ncc1-n1cc([C@H]2CC[C@H](C(Cl)CN3CCN(c4ccc(C5CCC(=O)NC5=O)cc4)CC3)CC2)nn1` (stereo partly drawn) [P-199, 1-(5-(4-((1R,4R)-4-((1R)-1-chloro-2-(4-(4-(2,6-dioxopiperidin-3-yl)phenyl)piperazin-1-yl)ethyl)cyclohexyl)-1H-1,2,3-triazol-1-yl)-4-(((R)-1-cyanoethyl)amino)pyridin-2-yl)-1H-pyrazolo[3,4-b]pyridine-5-carbonitrile.TFA], the “LVL THP1 HTRF YMIN” value was found to be 2.7% and the DC50 was determined as 2 nM. Turning to `C[C@H](C#N)Nc1cc(-n2ncc3cc(C#N)cnc32)ncc1-n1cc(C2CCC(CCN3[C@H](C)CN(c4ccc([C@@]5(C)CCC(=O)NC5=O)cc4)C[C@H]3C)CC2)nn1` (some centres unmarked) [P-243], the “LVL THP1 HTRF YMIN” value is 3.9% and the DC50 was found to be 159 nM.

With `C[C@H](C#N)Nc1cc(-n2ncc3cc(C#N)cnc32)ncc1-n1cc([C@H]2CC[C@H](CCN3CCC(c4ccc(N5CCC(=O)NC5=O)c(Cl)c4)CC3)CC2)nn1` [P-342], the “LVL THP1 HTRF YMIN” value is given as 7.1% and the DC50 came to 22.1 nM.

Consider `CC(F)(F)CNc1cc(-n2ncc3cc(C#N)c(N)nc32)ncc1C(=O)N[C@H]1CC[C@H](CCN2CCN(c3ccc(C4CCC(=O)NC4=O)cc3)CC2)CC1` (some centres unmarked) [P-185], for which the “LVL THP1 HTRF YMIN” value was found to be 1.5% and the DC50 was found to be 17 nM. In the case of `C[C@H](C#N)Nc1cc(-n2ncc3cc(C#N)cnc32)ncc1-n1cc([C@H]2CC[C@H](CCN3CCN(c4ccc(N5CCC(=O)NC5=O)cn4)[C@H](C)C3)CC2)nn1` [P-359], the “LVL THP1 HTRF YMIN” value is listed as −1.9% and the DC50 was 2.5 nM. Taken in the same sequence, the figures for `N#Cc1cnc2c(cnn2-c2cc(NCC3COC3)c(-n3cc([C@H]4CC[C@H](CCN5CCN(c6ccc(C7CCC(=O)NC7=O)cc6)CC5)CC4)nn3)cn2)c1` (some centres unmarked) [P-408] were 7.8% and 42.6 nM. For `C[C@H](C#N)Nc1cc(-n2ncc3cnc(N)nc32)ncc1-n1cc(C2CCC(CCN3CCN(c4ccc(C5CCC(=O)NC5=O)cc4)CC3)CC2)nn1` (some centres unmarked) [P-231], the “LVL THP1 HTRF YMIN” value worked out at 1.37%. For the molecule `C[C@H](C#N)Nc1cc(-n2ncc3cc(C#N)cnc32)ncc1-n1cc([C@H]2CC[C@H](CCN3CCN(c4ccc(N5CCC(=O)NC5=O)c(Cl)c4)CC3)CC2)nn1` [P-364], the “LVL THP1 HTRF YMIN” value was found to be 3.1% and the DC50 stood at 1.8 nM. In the case of `C[C@H](C#N)Nc1cc(-n2ncc3cc(C#N)cnc32)ncc1-n1cc([C@H]2CC[C@H](CCN3CCN(c4ccc(NC5CCC(=O)NC5=O)cc4)CC3)CC2)nn1` (some centres unmarked) [P-368], the “LVL THP1 HTRF YMIN” value was found to be 2.9% and the DC50 amounted to 4.4 nM. On to `C[C@H](C#N)Nc1cc(-n2ncc3cc(C#N)cnc32)ncc1-n1cc([C@H]2CC[C@H](CCN3CC4(CC(c5ccc(N6CCC(=O)NC6=O)c(Cl)c5)C4)C3)CC2)nn1` [P-432], for which the “LVL THP1 HTRF YMIN” value was 1.8% and the DC50 was 1.3 nM.

`C[C@H]1CN(c2ccc([C@@]3(C)CCC(=O)NC3=O)cc2)C[C@H](C)N1CCC1CCC(c2cn(-c3cnc(-n4ncc5cc(C#N)cnc54)cc3NC3(C#N)CC3)nn2)CC1` (some centres unmarked) [P-232]: the “LVL THP1 HTRF YMIN” value is recorded as 7.1% and the DC50 amounted to 65 nM. With `C[C@]1(c2ccc(N3CCN(CCC4CCC(c5cn(-c6cnc(-n7ncc8cc(C#N)cnc87)cc6NC6(C#N)CC6)nn5)CC4)CC3)cc2)CCC(=O)NC1=O` (some centres unmarked) [P-234], the “LVL THP1 HTRF YMIN” value is recorded as 3.1%. As to `C[C@H](C#N)Nc1cc(-n2ncc3cc(C#N)cnc32)ncc1-c1cn([C@H]2CC[C@H](CCN3CCN(c4ccc(C5CCC(=O)NC5=O)cc4)CC3)CC2)nn1` (some centres unmarked) [P-195], the DC50 came to 6 nM. Take `C[C@H](C#N)Nc1cc(-n2ncc3cc(C#N)cnc32)ncc1C(=O)N[C@H]1CC[C@H](CCN2CC[C@H]3[C@@H]2CCN3c2ccc(N3CCC(=O)NC3=O)c(Cl)c2)CC1` [P-475]: the “LVL THP1 HTRF YMIN” value was found to be 6.4% and the DC50 stood at 47 nM. `C[C@H](C#N)Nc1cc(-n2ncc3cc(C#N)cnc32)ncc1-n1cc([C@H]2CC[C@H](CCN3CCC(n4cc(C5CCC(=O)NC5=O)cn4)CC3)CC2)nn1` (some centres unmarked) [P-346]: the “LVL THP1 HTRF YMIN” value turned out to be 17.5% and the DC50 is 92.8 nM.

On to `C[C@H](C#N)Nc1cc(Nc2ncc(C#N)cc2Cl)ncc1-n1cc([C@H]2CC[C@H](CCN3CCN(c4ccc(C5CCC(=O)NC5=O)cc4)CC3)CC2)nn1` (some centres unmarked) [P-379], for which the “LVL THP1 HTRF YMIN” value came out at 1.8% and the DC50 came out at 4 nM. For the molecule `C[C@H](C#N)Nc1cc(-n2ncc3cc(C#N)c(N)nc32)ncc1-n1cc([C@H]2CC[C@H](CCN3CCN(c4ccc([C@@]5(C)CCC(=O)NC5=O)cc4)CC3)CC2)nn1` [P-222], the DC50 is 7 nM.

With `C[C@H](C#N)Nc1cc(-n2ncc3cc(C#N)cnc32)ncc1C(=O)N[C@H]1CC[C@H](CCN2CCC(c3ccc([C@@]4(C)CCC(=O)NC4=O)cc3)CC2)CC1` [P-273], the “LVL THP1 HTRF YMIN” value turned out to be 5.6% and the DC50 turned out to be 4.9 nM.

The values above are taken from patent US20240109881A1, “Heteroaryl Compounds as Ligand Directed Degraders of IRAK4” (Bristol-Myers Squibb Company, priority 2022, published 2024).
